Laboratory results taken from patent USRE49050E1, “Traditional Chinese medicine composition, and preparation and application thereof” (Tasly Pharmaceutical Group Co., Ltd., priority 2013, dated 2022).

Experiments:
Format in all cases: in vivo
[1] = system: collagen-induced platelet aggregation; assay: Platelet aggregation rate trial in rabbits, collagen-induced; conditions: dose 60 mg/kg intragastric once a day for 7 days, n = 8
Procedure: (§1) The rabbits were randomly grouped into 4 groups: the model group was given with distilled water, the aspirin group ([…]), Extract A groups of low dose and high dose at 42 and 84 mg/kg (respectively 1 2 times of clinic equivalent dosage), intragastrically administrated, once a day for 7 consecutive days. The volume of medicine administrated was 1 ml/kg body weight. 60 min after intragastric administration on 7th day, the animals were anesthetized locally, blooded through carotid artery, anticoagulated with sodium citrate (3.8%) 1:9 and centrifugated at 1000 r/min for 10 min. Platelet-rich plasma (PRP) was taken and the remain centrifugated at 3000 r/min to take platelet-poor plasma (PPP. Aggregation was induced by ADP (final concentration 3 μg/ml), AA (final concentration 80 μg/ml) and collagen ([…]). […] platelet aggregation & coagulation factor analyzer was used to measure the maximum platelet aggregation rate and to calculate inhibition rate according to following formula. [formula] Results

[2] = system: ADP-induced platelet aggregation; assay: Platelet aggregation rate trial in rabbits, ADP-induced; conditions: ADP 3 μg/ml; dose 60 mg/kg intragastric once a day for 7 days; n = 8
Procedure: as §1

[3] = system: AA-induced platelet aggregation; assay: Platelet aggregation rate trial in rabbits, AA-induced; conditions: AA 80 μg/ml; dose 60 mg/kg intragastric once a day for 7 days; n = 8
Procedure: as §1

CC(=O)Oc1ccccc1C(=O)O [Aspirin]
Platelet aggregation rate [1]: 6.23 ± 2.41 %
Platelet aggregation rate [2]: 18.96 ± 4.11 %
Platelet aggregation rate [3]: 6.13 ± 2.03 %
